The values that follow come from patent US20110165173A1, “THERAPEUTIC AGENT AND DETECTION REAGENT FOR ARTERIOSCLEROTIC DISEASE WHICH TARGETS FOR SALUSIN” (PROTEINEXPRESS CO., LTD., priority 2007, published 2011).

The test system of this assay is scavenger receptor class A (SR-A) activity. Nature of the assay: Scavenger receptor class A (SR-A) activity: [125I]AcLDL association and degradation assays. It counts as cell-based, human. As to conditions: 0.6 nM; 5 to 10 μg/mL [125I]AcLDL, 18 hours. The text has this: A scavenger receptor is a lipoprotein receptor expressed on macrophages. It recognizes modified LDL such as oxidized LDL or AcLDL, leading to endocytosis. A ligand of such receptor that has been incorporated into a cell is degraded in the lysosome. Such scavenger receptor plays a very important role on formation of foam cells from macrophages. Known examples of a scavenger receptor include a scavenger receptor class A (SR-A), CD36, lectin-like oxidized LDL receptor-1 (LOX-1), and CD68 [Greaves D R et al., J Lipid Res. 2005; 46: 11-20.]. Oxidized LDL can bind to the four types of the above scavenger receptors. However, the only scavenger receptor to which AcLDL binds is SR-A. In this experiment, AcLDL, which is a representative example of modified LDL, was used as a ligand and the activity of SR-A serving an exclusive scavenger receptor capable of recognizing AcLDL was assayed (FIG. 9).
Peripheral blood human monocytes (4×10^6cells/6 cm dish) were cultured for 7 days in an RPMI-1640 medium (2 mL) containing 10% human serum so as to differentiate into macrophages. At such time, 0.6 nM salusin-α or salusin-β was added during culture to examine effects of salusin-α and salusin-β on the endocytosis activity (SR-A activity) of [^125I]AcLDL. On Day 7, the medium was changed. An adequate amount of medium was added to [^125I]AcLDL (5 to 10 μg/mL) and 0.6 nM salusin-α or salusin-β so as to result in a total amount of 2 mL. The cells were further cultured for 18 hours.
The cells were washed once with PBS containing 3% BSA and then washed twice with PBS. 0.1 N NaOH (1 mL) was added thereto and the resultant was allowed to stand at room temperature for 30 minutes. The cells were recovered into a polystyrene tube (12×75 mm, Fisher Scientific Company), further washed with 0.1 N NaOH (1 mL), and recovered again. The total amount of the cell extraction solution was assayed using a y counter. The protein concentration of a portion thereof was determined by the BCA method (Pierce). The cell association (μg/mg cell protein) of [^125I]AcLDL was calculated by dividing the radioactivity (cpm) of the cell extraction solution by the specific activity (cpm/μg) of [^125I]AcLDL and the cell protein amount (mg) per dish [Miyazaki A et al., J Biol Chem. 1994; 269: 5264-5269].
[^125I]AcLDL incorporated by macrophages via scavenger receptors are degraded in the lysosome. […]
A portion (750 μL) was collected from each culture supernatant into a polystyrene tube (12×75 mm, Fisher Scientific Company). […] In addition, the peptide from [^125I]AcLDL that had been processed by cells was exclusively detected in the trichloroacetic acid soluble fraction. […]

Take “salusin-β: peptide (SEQ ID NO: 3) comprising 20 amino acid residues, generated by processing from preprosalusin (AIFIFIRWLLKLGHHGRAPP; listed as Homo sapiens) [reference compound]”: the “[125I]AcLDL association assay vs control cells” value was “no significant changes” and the “[125I]AcLDL degradation assay vs control cells” value is “no significant changes”.

With “salusin-α: peptide (SEQ ID NO: 1) comprising 28 amino acid residues, generated by processing from preprosalusin (SGALPPAPAAPRPALRAQRAGPAGPGAK; listed as Homo sapiens)”, the “[125I]AcLDL association assay vs control cells” value is “no significant changes” and the “[125I]AcLDL degradation assay vs control cells” value is recorded as “no significant changes”.
